Measured values from ChEMBL document CHEMBL6092154, “Design, synthesis, and evaluation of a novel TRAIL-activated HDAC6 inhibitor for the treatment of pulmonary fibrosis” (Bioorg Med Chem, 2024).
Active and inactive are the calls of the source. The rule behind the calls is not given here.

Tests used:
Mus musculus [1] = assay: Anti-pulmonary fibrosis activity in bleomycin-induced idiopathic pulmonary fibrosis C57BL/6J mouse model assessed as decrease in collagen I protein expression in lung at 25 mg/kg, ig administered daily via gavage measured after 14 days by western blot analysis; format: functional, organism-based; conditions: time 14.0 day
[2] = target: Histone deacetylase 1 (Homo sapiens) (UniProt Q13547); assay: Inhibition of HDAC1 (unknown origin) at 1 uM incubated for 30 mins by fluorometric analysis
Histone deacetylase 1 (Homo sapiens), sequence (Q13547 whole entry): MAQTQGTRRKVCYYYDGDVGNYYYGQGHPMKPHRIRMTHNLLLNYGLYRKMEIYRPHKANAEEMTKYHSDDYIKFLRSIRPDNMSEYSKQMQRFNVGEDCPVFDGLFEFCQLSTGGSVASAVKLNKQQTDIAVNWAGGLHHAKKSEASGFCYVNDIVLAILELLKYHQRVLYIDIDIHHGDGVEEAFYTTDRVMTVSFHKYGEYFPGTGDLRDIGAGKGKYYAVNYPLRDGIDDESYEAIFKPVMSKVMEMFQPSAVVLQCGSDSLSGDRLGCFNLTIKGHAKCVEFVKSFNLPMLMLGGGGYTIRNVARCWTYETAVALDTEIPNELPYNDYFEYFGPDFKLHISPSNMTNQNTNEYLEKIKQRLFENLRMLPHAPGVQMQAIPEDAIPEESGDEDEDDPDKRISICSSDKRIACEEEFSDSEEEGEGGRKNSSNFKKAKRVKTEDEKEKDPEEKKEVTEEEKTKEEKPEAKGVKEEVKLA

Histone deacetylase 3 = Histone deacetylase 3 (Homo sapiens, UniProt O15379); assay: Inhibition of HDAC3 (unknown origin) at 1 uM incubated for 30 mins by fluorometric analysis
Histone deacetylase 3, sequence (O15379 whole entry): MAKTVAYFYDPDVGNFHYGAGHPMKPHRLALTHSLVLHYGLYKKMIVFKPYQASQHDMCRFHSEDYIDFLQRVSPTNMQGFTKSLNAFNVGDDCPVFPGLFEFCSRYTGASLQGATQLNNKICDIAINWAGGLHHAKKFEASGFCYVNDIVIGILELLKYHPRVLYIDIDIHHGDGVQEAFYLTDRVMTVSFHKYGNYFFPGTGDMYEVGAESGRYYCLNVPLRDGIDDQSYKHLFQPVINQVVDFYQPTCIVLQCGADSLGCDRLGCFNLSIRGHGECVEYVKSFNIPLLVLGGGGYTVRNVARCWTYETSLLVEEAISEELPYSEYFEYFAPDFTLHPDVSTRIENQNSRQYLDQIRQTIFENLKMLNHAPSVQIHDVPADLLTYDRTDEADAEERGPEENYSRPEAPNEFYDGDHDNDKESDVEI

[3] = target: T1, Histone deacetylase 8 (Homo sapiens) (UniProt Q9BY41); assay: Inhibition of HDAC8 (unknown origin) at 1 uM incubated for 30 mins by fluorometric analysis
T1 sequence (whole entry): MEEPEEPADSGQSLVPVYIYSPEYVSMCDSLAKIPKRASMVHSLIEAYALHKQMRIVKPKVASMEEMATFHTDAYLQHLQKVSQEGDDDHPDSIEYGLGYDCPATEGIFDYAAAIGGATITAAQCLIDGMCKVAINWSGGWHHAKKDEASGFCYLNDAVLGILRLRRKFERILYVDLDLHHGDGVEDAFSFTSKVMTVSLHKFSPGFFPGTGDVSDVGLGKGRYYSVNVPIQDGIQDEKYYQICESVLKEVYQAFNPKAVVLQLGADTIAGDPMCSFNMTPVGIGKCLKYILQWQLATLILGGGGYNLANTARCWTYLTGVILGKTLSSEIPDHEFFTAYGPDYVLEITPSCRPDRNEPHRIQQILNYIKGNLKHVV

[4] = target: T2, Protein deacetylase HDAC6 (Homo sapiens, UniProt Q9UBN7); assay: Inhibition of HDAC6 (unknown origin) incubated for 30 mins by fluorometric analysis
T2 sequence (Q9UBN7 whole entry): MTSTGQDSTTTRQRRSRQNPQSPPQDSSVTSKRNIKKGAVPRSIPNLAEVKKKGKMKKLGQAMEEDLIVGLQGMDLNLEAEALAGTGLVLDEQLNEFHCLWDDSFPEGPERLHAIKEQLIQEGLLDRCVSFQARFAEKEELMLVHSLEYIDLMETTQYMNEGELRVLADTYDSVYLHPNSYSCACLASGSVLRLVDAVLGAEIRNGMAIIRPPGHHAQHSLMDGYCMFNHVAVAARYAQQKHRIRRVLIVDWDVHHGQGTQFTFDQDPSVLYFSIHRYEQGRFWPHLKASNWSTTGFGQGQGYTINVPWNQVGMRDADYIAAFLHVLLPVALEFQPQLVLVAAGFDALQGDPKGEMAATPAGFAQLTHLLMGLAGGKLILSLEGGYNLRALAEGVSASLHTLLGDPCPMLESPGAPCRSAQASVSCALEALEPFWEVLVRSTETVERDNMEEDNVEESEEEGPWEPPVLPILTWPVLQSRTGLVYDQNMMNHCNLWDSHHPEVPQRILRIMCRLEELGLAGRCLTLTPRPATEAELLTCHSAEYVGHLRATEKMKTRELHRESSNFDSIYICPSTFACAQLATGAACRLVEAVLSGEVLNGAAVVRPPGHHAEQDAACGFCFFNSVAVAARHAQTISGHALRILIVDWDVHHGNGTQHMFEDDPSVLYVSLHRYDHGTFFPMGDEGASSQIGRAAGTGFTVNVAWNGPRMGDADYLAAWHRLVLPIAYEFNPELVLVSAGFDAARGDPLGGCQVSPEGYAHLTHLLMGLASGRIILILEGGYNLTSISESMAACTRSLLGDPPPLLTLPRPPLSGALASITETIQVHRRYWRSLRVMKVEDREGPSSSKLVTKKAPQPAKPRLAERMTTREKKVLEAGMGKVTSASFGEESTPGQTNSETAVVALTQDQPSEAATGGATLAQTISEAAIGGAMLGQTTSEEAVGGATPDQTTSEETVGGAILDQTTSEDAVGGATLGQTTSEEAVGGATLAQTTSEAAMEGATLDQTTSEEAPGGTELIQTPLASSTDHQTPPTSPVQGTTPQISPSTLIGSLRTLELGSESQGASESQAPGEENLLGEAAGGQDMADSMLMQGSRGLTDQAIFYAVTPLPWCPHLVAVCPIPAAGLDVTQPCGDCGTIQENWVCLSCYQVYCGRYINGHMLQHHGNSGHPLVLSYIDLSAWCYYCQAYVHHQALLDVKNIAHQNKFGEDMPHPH

Histone deacetylase 2 = Histone deacetylase 2 (Homo sapiens, UniProt Q92769); assay: Inhibition of HDAC2 (unknown origin) incubated for 30 mins by fluorometric analysis
Histone deacetylase 2, sequence (Q92769 whole entry): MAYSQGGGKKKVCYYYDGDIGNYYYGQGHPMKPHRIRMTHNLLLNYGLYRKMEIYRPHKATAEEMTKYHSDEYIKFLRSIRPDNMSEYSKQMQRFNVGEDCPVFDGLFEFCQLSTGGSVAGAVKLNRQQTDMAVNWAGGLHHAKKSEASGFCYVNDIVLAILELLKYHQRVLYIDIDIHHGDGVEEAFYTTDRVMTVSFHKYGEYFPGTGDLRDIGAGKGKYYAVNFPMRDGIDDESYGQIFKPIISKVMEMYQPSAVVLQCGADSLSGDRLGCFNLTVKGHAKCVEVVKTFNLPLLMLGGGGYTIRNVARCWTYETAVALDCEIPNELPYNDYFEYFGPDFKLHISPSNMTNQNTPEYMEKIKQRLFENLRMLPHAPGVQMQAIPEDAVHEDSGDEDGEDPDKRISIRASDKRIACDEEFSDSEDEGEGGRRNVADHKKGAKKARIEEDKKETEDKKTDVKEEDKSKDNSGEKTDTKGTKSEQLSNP

Histone deacetylase 8 = target: T3, Histone deacetylase 8 (Homo sapiens, UniProt Q9BY41); assay: Inhibition of HDAC8 (unknown origin) incubated for 30 mins by fluorometric analysis
T3 sequence (Q9BY41 whole entry): T1 sequence (whole entry)

Fibroblast = assay: Antiproliferative activity against human primary fibroblasts assessed as inhibition of cell growth incubated for 24 to 48 hrs by CCK8 assay; format: functional, cell-based
[5] = target: T4, Protein deacetylase HDAC6 (Homo sapiens) (UniProt Q9UBN7); assay: Inhibition of HDAC6 in human RPMI-8226 cells assessed as increase in acetylated histone H4 level at 1 uM incubated for 24 hrs by western blot analysis; format: cell-based
T4 sequence (whole entry): T2 sequence (Q9UBN7 whole entry)

Mus musculus [6] = assay: Anti-pulmonary fibrosis activity in bleomycin-induced idiopathic pulmonary fibrosis C57BL/6J mouse model assessed as decrease in collagen I protein expression in lung at 50 mg/kg, ig administered daily via gavage measured after 14 days by western blot analysis; format: functional, organism-based; conditions: time 14.0 day
Mus musculus [7] = assay: Anti-pulmonary fibrosis activity in bleomycin-induced idiopathic pulmonary fibrosis C57BL/6J mouse model assessed as decrease in lung damage by measuring decrease in inflammatory cell infiltration in lung at 25 to 50 mg/kg, ig administered daily via gavage and measured on day 14 by Sirius red staining based analysis; format: functional, organism-based; conditions: dose 25-50 mg/kg, time 14.0 day
[8] = Toxicity against bleomycin-induced pulmonary fibrosis C57BL/6J mouse model assessed as increase AST index in serum at 50 mg/kg, ig administered daily via gavage and measured on day 14; format: organism-based; conditions: in vivo, po, 336 h, time 14 day
[9] = Toxicity against bleomycin-induced pulmonary fibrosis C57BL/6J mouse model assessed as effect on kidney morphological changes at 25 to 50 mg/kg, ig administered daily via gavage and measured on day 14 by Hematoxylin-Eosin staining based analysis; format: organism-based; conditions: in vivo, po, 336 h, dose 25-50 mg/kg, time 14 day
[10] = Toxicity against silicosis C57BL/6J mouse model assessed as effect on spleen morphological changes at 50 mg/kg, ig administered daily via gavage and measured on day 28 by Hematoxylin-Eosin staining based analysis; format: organism-based; conditions: in vivo, po, 672 h, time 28 day

inhibition [2]: 56.1% | inhibition (Histone deacetylase 3): 50.8% | inhibition [3]: 76.2% | IC50 [4]: 42.9 nM | IC50 (Histone deacetylase 2): 642 nM | IC50 (Histone deacetylase 8): 333 nM
SMILES: O=C(NO)c1ccc(CN2C(=O)C3=C(CCN(Cc4cccc(Cl)c4)C3)N3CCN=C23)cc1
Activity (Mus musculus [1]): Active; Superior Activity Compared To Positive Drug, Acy-1215 | IC50 (Fibroblast): 29400 nM | inhibition [5]: Active; Intensity Of Increase Slightly Lower Than Positive Drug, Acy-1215 | Activity (Mus musculus [6]): Active; Superior Activity Compared To Positive Drug, Acy-1215 | Activity (Mus musculus [7]): Active | Activity [8]: Toxic | Activity [9]: Non-toxic | Activity [10]: Non-toxic
